Results as given in patent publication US5721356A, “Orally active adenosine kinase inhibitors” (Gensia, Inc., priority 1995, dated 1998).
Like-named read-outs stand apart in the source and are kept apart here.

Tests used:
[1] = molecular target: T1, partially purified pig heart adenosine kinase (Sus scrofa, UniProt A0A5G2R0F5); experiment: Adenosine kinase (AK) inhibition; format: biochemical
T1 construct: partially purified pig heart adenosine kinase; from tissue; host or cells: pig heart
Method: Adenosine kinase activity was measured essentially as described by Yamada et al. Biochim. Biophys. Acta 660, 36-43 […] with a few minor modifications. Assay mixtures contained 50 mM TRIS-maleate buffer, pH 7.0, 0.1% BSA, 1 mM ATP 1 mM MgCl2, 0.5 μM [U-^14 C]adenosine (400-600 mCi/mmol) and varying duplicate concentrations of inhibitor. The reactions were initiated by addition of approximately 0.1 μU partially purified pig heart adenosine kinase, where one unit is defined as that amount of enzyme required to phosphorylate 1 μmol adenosine per minute. The reactions were incubated for 20 minutes at 37° C. The assay was quenched upon spotting 30 μL aliquots onto 2 cm^2 pieces of Whatman DE81 anion exchange paper. The paper squares were washed for 3 minutes in 6 L distilled/deionized water to remove the unreacted adenosine. […] The amount of ^14 C-AMP was quantified by scintillation counting.

male SA rats = experiment: Anticonvulsant activity, maximal electroshock (MES) model, suppression of hind limb tonic extension; format: in vivo; details: Rattus norvegicus, 1 h
[2] = ip, one hour before seizure testing, >5 or <5 = fewer or more than 50% inhibited in initial screen at 5 mg/kg ip, read-out: Anticonvulsant ED50 (MES), ip
[3] = ip, one hour before seizure testing, >5 or <5 = fewer or more than 50% inhibited in initial screen at 5 mg/kg ip
[4] = po, fasted, one hour before seizure testing, read-out: Anticonvulsant ED50 (MES), po

T1 sequence (A0A5G2R0F5 1-362): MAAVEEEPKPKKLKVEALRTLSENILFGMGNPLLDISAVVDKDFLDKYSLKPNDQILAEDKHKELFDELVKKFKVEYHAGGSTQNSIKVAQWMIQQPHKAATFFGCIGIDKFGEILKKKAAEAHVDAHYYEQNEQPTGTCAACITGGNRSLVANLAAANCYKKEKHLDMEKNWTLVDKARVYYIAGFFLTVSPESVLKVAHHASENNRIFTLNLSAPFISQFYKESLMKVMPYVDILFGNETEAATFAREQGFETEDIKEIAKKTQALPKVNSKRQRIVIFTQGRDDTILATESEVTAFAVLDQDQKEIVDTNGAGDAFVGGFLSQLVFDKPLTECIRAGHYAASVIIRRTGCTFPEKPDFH

Structure (SMILES) | IC50 [1] [nM] | ED50 (male SA rats; [2]) [mg/kg] | ED50 at 5 mg/kg (male SA rats; [3]) [mg/kg] | ED50 (male SA rats; [4]) [mg/kg] | ED50 (male SA rats; po, read-out: Anticonvulsant ED50 (MES), po) [mg/kg] | IC50 ([1]; read-out: AK Inhibition (IC50), 0.5 μM [U-14C]adenosine, pH 7.0, 37° C., 20 minutes) [nM]
C[C@H]1O[C@@H](n2cc(-c3ccccc3)c3c(Nc4cc(F)cc(F)c4)ncnc32)[C@H](O)[C@@H]1O [compound 10] | 1 | 5 |  |  |  | 
C[C@H]1O[C@@H](n2cc(-c3ccccc3)c3c(Nc4ccc(F)c(F)c4)ncnc32)[C@H](O)[C@@H]1O [compound 11] | 4 |  | 5 |  |  | 
COc1ccc(Nc2ncnc3c2c(-c2ccccc2)cn3[C@@H]2O[C@H](C)[C@@H](O)[C@H]2O)cc1 [compound 13] | 6 | 2 |  | > 10 |  | 
C[C@H]1O[C@@H](n2cc(-c3cccc(Cl)c3)c3c(Nc4ccccc4)ncnc32)[C@H](O)[C@@H]1O [compound 15] | 16 |  | 2.5 |  | > 20 | 
Cc1ccc(-c2cn([C@@H]3O[C@H](C)[C@@H](O)[C@H]3O)c3ncnc(Nc4ccccc4)c23)cc1 [compound 16] | 9 |  | 2.3 | 8.7 |  | 
C[C@H]1O[C@@H](n2cc(-c3ccccc3)c3c(Nc4cccc(Cl)c4)ncnc32)[C@H](O)[C@@H]1O [compound 17] | 17 |  |  |  |  | 
Cc1cccc(Nc2ncnc3c2c(-c2ccccc2)cn3[C@@H]2O[C@H](C)[C@@H](O)[C@H]2O)c1 [compound 18] | 4 |  | 3.8 | > 40 |  | 
C[C@H]1O[C@@H](n2cc(-c3ccccc3)c3c(Nc4cccc(F)c4)ncnc32)[C@H](O)[C@@H]1O [compound 19] | 2 |  | 0.4 | > 30 |  | 
C[C@H]1O[C@@H](n2cc(-c3ccccc3)c3c(Nc4ccc(O)cc4)ncnc32)[C@H](O)[C@@H]1O [compound 20] | 32 | 5.5 |  | 40 |  | 
C[C@H]1O[C@@H](n2cc(-c3ccc(F)cc3)c3c(Nc4ccccc4)ncnc32)[C@H](O)[C@@H]1O [compound 24] |  |  | 2.5 | 10 |  | 
COc1ccc(-c2cn([C@@H]3O[C@H](C)[C@@H](O)[C@H]3O)c3ncnc(Nc4ccc(F)cc4)c23)cc1 [compound 25] | 10 |  | 3.1 |  |  | 
CCc1ccc(Nc2ncnc3c2c(-c2ccccc2)cn3[C@@H]2O[C@H](C)[C@@H](O)[C@H]2O)cc1 [compound 29] | 20 |  | > 5 |  |  | 
C[C@H]1O[C@@H](n2cc(-c3cccc([N+](=O)[O-])c3)c3c(Nc4ccc(F)cc4)ncnc32)[C@H](O)[C@@H]1O [compound 30] | 28 |  | > 5 |  |  | 
CC(=O)Nc1ccc(Nc2ncnc3c2c(-c2ccccc2)cn3[C@@H]2O[C@H](C)[C@@H](O)[C@H]2O)cc1 [compound 32] | 0.5 |  | 5 | > 5 |  | 
C[C@H]1O[C@@H](n2cc(-c3ccccc3)c3c(NCc4ccccc4)ncnc32)[C@H](O)[C@@H]1O [compound 38] | 30 | > 5 |  |  |  | 
CSc1ccc(Nc2ncnc3c2c(-c2ccccc2)cn3[C@@H]2O[C@H](C)[C@@H](O)[C@H]2O)cc1 [compound 40] | 2 |  | 5 | > 10 |  | 
C[C@H]1O[C@@H](n2c(Br)c(-c3ccccc3)c3c(Nc4ccc(F)cc4)ncnc32)[C@H](O)[C@@H]1O [compound 41] | 42 |  | > 5 |  |  | 
C[C@H]1O[C@@H](n2cc(-c3ccccc3)c3c(Nc4ccc(N)cc4)ncnc32)[C@H](O)[C@@H]1O [compound 43] | 3 |  | < 5 |  |  | 
C[C@H]1O[C@@H](n2nc(-c3ccccc3)c3c(Nc4ccc(Cl)cc4)ncnc32)[C@H](O)[C@@H]1O [compound 91] |  |  |  |  |  | 11
[N-]=[N+]=NC[C@H]1O[C@@H](n2nc(-c3ccccc3)c3c(Nc4ccc(Cl)cc4)ncnc32)[C@H](O)[C@@H]1O [compound 92] | 17 |  |  |  |  | 
COc1ccc(-c2nn([C@@H]3O[C@H](CN=[N+]=[N-])[C@@H](O)[C@H]3O)c3ncnc(Nc4ccc(C)cc4)c23)cc1 [compound 95] |  |  | > 5 |  |  | 
